Key:
GL261 = assay: Cytotoxicity against mouse GL261 cells assessed as reduction in cell viability incubated for 24 hrs by CCK8 assay; assay type: functional, cell-based; details: GL261, 24 h
Hs 683 = assay: Cytotoxicity against human Hs 683 cells assessed as reduction in cell viability incubated for 24 hrs by CCK8 assay; assay type: functional, cell-based; details: Hs 683, 24 h
U-87 MG = assay: Cytotoxicity against human U87 cells assessed as reduction in cell viability incubated for 24 hrs by CCK8 assay; assay type: functional, cell-based, U-87MG ATCC
[1] = Aqueous solubility of compound at up to 80 uM measured after 10 mins by optical microscopic analysis; assay type: physicochemical; details: buffer

Row | Structure (SMILES) | IC50 (GL261) [µM] | IC50 (Hs 683) [µM] | IC50 (U-87 MG) [µM] | solubility [1]
1 | CCN(C(=O)[C@H](Cc1ccccc1)NS(=O)(=O)c1cccc2nsnc12)c1ccccc1 | 60.6 | 69.8 | 66.3 | 
2 | Cc1ccc(CN2C(=O)[C@](O)(CC(=O)c3ccc4c(c3)OCO4)c3cc(Br)ccc32)cc1 | 21.3 | 18.7 | 15.5 | Insoluble
3 | Cc1ccc(CNC(=O)Cn2c(CO)cnc2SCC(=O)Nc2ccc3c(c2)OCO3)cc1 | 50.1 | 41.5 | 37.8 | 
4 | Cc1ccc(NC(=O)C[C@H]2SC(NC(c3ccc(F)cc3)c3c(O)[nH]c(=O)[nH]c3=O)=NC2=O)cc1C (stereo not given in full) | 47.9 | 40.8 | 46.5 | 
5 | COc1cccc2c1OC(c1ccc(F)cc1)N1N=C(c3ccccc3)CC21 (stereo not given) | > 100 | > 100 | > 100 | 
6 | COc1ccc(NS(=O)(=O)c2ccc(NC(=S)NC(=O)C(C)C)cc2)cc1 | 61.3 | 53.2 | 56.7 | 
7 | COc1ccccc1[C@H](CNC(=O)CCc1c[nH]c2ccccc12)N1CCCC1 | 94.6 | > 100 | > 100 | 
8 | O=C(C1=C(O)C(=O)N(CCc2c[nH]c3ccccc23)[C@@H]1c1cccc(O)c1)c1ccc(Cl)cc1 | 57.3 | 60.8 | 54.3 | 
